This is an account of results in patent US4234579A, “Penicillanic acid 1,1-dioxides as β-lactamase inhibitors” (priority 1979, dated 1980).

Molecules are shown by their SMILES. Read-outs that look alike come from different tables or passages of the source.

Common to all, as to test: Mode MIC of antibiotic and PA 1,1-Dioxide alone and in combination
What all share (assay type): cell-based

In one assay the test system is Bacteroides fragilis. The note with it: for MIC: Bacteroides fragilis, 18 h, read-out: Mode MIC alone. From the text: (§1) As indicated hereinbefore, the compounds of formula I, wherein R^1 is hydrogen or an ester-forming residue readily hydrolyzable in vivo, are antibacterial agents of medium potency. […] The procedure which is followed is the one recommended by the International Collaborative Study on Antibiotic Sensitivity Testing (Ericcson and Sherris, Acta. Pathologica et Microbiologia Scandinav, Supp. 217, Section B: 64-68 [1971]), and employs brain heart infusion (BHI) agar and the inocula replicating device. Overnight growth tubes are diluted 100 fold for use as the standard inoculum (20,000-10,000 cells in approximately 0.002 ml. are placed on the agar surface; 20 ml. of BHI agar/dish). Twelve 2 fold dilutions of the test compound are employed, with initial concentration of the test drug being 200 mcg./ml. Single colonies are disregarded when reading plates after 18 hrs. at 37° C. The susceptibility (MIC) of the test organism is accepted as the lowest concentration of compound capable of producing complete inhibition of growth as judged by the naked eye.
(§2) The manner in which the said compounds of the formula I increase the effectiveness of a β-lactam antibiotic can be appreciated by reference to experiments in which the MIC of a given antibiotic alone, and a compound of the formula I wherein R^1 is hydrogen, alone, are measured. These MIC's are then compared with the MIC values obtained with a combination of the given antibiotic and the compound of the formula I wherein R^1 is hydrogen. […] The MIC values of combinations are measured using the method described by Barry and Sabath in "Manual of Clinical Microbiology", edited by Lenette, Spaulding and Truant, 2nd Edition, 1974, American Society for Microbiology.
(§3) From Table II, it can be seen that against 19 ampicillin-resistant strains of Staphylococcus aureus, the mode MIC of ampicillin, and of penicillanic acid 1,1-dioxide, is 200 mcg./ml. […] The other entries in Table II show enhancement of the antibacterial effectiveness of ampicillin against 26 ampicillin resistant strains of Haemophilus influenzae, 18 ampicillin resistant strains of Klebsiella pneumoniae, and 15 strains of the anerobe Bacteroides fragilis. Tables III, IV and V show enhancement of the antibacterial potency of benzylpenicillin (penicillin G) carbenicillin (α-carboxybenzylpenicillin) and cefazolin, respectively, against strains of S. aureus, H. influenzae, K. pneumoniae and Bacteroides fragilis.

In a further assay the test system is Haemophilus influenzae. The settings on record: for MIC: Haemophilus influenzae, 18 h, alone.
Source text: as §1, §2, §3

The test system of a further assay is Staphylococcus aureus. The note with it: for MIC: Staphylococcus aureus, 18 h, read-out: Mode MIC alone.
Source text: as §1, §2, §3

The test system of the next assay is Klebsiella pneumoniae. The settings on record: for MIC: Klebsiella pneumoniae, 18 h, read-out: Mode MIC alone.
Source text: as §1, §2, §3

On to `CC1(C)S[C@@H]2[C@H](NC(=O)[C@H](N)c3ccccc3)C(=O)N2[C@H]1C(=O)O` [ampicillin, reference compound], for which the MIC was 50 µg/mL with Bacteroides fragilis (Table II, 15 strains, alone); 200 µg/mL in the assay with Haemophilus influenzae (Table II, 26 ampicillin resistant strains, read-out: Mode MIC alone); 200 µg/mL in the assay with Staphylococcus aureus (Table II, 19 ampicillin-resistant strains, alone); over 400 µg/mL with Klebsiella pneumoniae (Table II, 18 ampicillin resistant strains, alone). Further, the “Mode MIC's of ampicillin and PA 1,1-Dioxide in combination” value was 1.56 µg/mL in the assay with Bacteroides fragilis (Table II, 15 strains, ampicillin + PA 1,1-Dioxide in combination); 0.78 µg/mL with Haemophilus influenzae (Table II, 26 ampicillin resistant strains, ampicillin + PA 1,1-Dioxide in combination); 1.56 µg/mL in the assay on Staphylococcus aureus (Table II, 19 ampicillin-resistant strains, ampicillin + PA 1,1-Dioxide in combination); 6.25 µg/mL in the assay on Klebsiella pneumoniae (Table II, 18 ampicillin resistant strains, ampicillin + PA 1,1-Dioxide in combination).
On to `CC1(C)S[C@@H]2[C@H](NC(=O)C(C(=O)O)c3ccccc3)C(=O)N2[C@H]1C(=O)O` (stereo partly drawn) [carbenicillin, α-carboxybenzylpenicillin, reference compound], for which the MIC in the assay on Bacteroides fragilis (Table IV, 15 strains, alone) was 50 µg/mL; in the assay on Haemophilus influenzae (Table IV, 25 strains, read-out: Mode MIC alone), 6.25 µg/mL; in the assay on Staphylococcus aureus (Table IV, 20 strains, alone), 12.5 µg/mL; in the assay on Klebsiella pneumoniae (Table IV, 16 strains, alone), over 400 µg/mL. Also, the Mode MIC's of carbenicillin and PA 1,1-Dioxide in combination was 3.12 µg/mL with Bacteroides fragilis (Table IV, 15 strains, carbenicillin + PA 1,1-Dioxide in combination); 0.39 µg/mL in the assay on Haemophilus influenzae (Table IV, 25 strains, carbenicillin + PA 1,1-Dioxide in combination); 6.25 µg/mL in the assay with Staphylococcus aureus (Table IV, 20 strains, carbenicillin + PA 1,1-Dioxide in combination); 50 µg/mL with Klebsiella pneumoniae (Table IV, 16 strains, carbenicillin + PA 1,1-Dioxide in combination).
For `CC1(C)S[C@@H]2[C@H](NC(=O)Cc3ccccc3)C(=O)N2[C@H]1C(=O)O` [penicillin G, reference compound], the MIC turned out to be 25 µg/mL with Bacteroides fragilis; 50 µg/mL in the assay on Haemophilus influenzae (read-out: Mode MIC alone, Table III, 25 strains); 200 µg/mL in the assay on Staphylococcus aureus; 400 µg/mL in the assay with Klebsiella pneumoniae. For the same compound, the Mode MIC's of penicillin G and PA 1,1-Dioxide in combination in the assay on Bacteroides fragilis (Table III, 15 strains, penicillin G + PA 1,1-Dioxide in combination) was 1.56 µg/mL; in the assay with Haemophilus influenzae (Table III, 25 strains, penicillin G + PA 1,1-Dioxide in combination) it was 0.78 µg/mL; with Staphylococcus aureus (Table III, 20 strains, penicillin G + PA 1,1-Dioxide in combination), 3.12 µg/mL; in the assay with Klebsiella pneumoniae (Table III, 24 strains, penicillin G + PA 1,1-Dioxide in combination), 25 µg/mL.
